Reference: publication PMC7680447 (Glycoconjugate journal, 2020)
Several values for one entry are separate records, joined by “and”; a condition that tells them apart may be missing. Equal values may be shown once. Entries after “also recorded” stand apart in the source; their conditions may differ. Read-outs that look alike come from different tables or passages of the source.

Columns and labels:
Gal-1 (Galectin-1) [1] = target: T1, Gal-1 (Galectin-1) (Homo sapiens, UniProt P09382); assay: Isothermal titration calorimetry, binding to Gal-1; conditions: for Gal-1 binding affinity in words: ITC in solution; for Gal-1 binding affinity in words / −TΔS / −ΔG / −ΔH: phosphate buffer pH 7.2; for Kd in HEPES buffer (values not given): HEPES buffer containing 0.05% Tween-20, control titrations; for n-value: rounded/summary values in text, Gal-1 treated as a dimer for concentration input
T1 sequence (P09382 whole entry): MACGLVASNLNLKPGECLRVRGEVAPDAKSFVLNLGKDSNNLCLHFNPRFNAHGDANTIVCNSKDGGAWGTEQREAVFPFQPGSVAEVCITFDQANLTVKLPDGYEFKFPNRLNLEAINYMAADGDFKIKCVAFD

his-tagged Gal-1 = his-tagged Gal-1 (Homo sapiens, UniProt P09382); assay: Isothermal titration calorimetry, binding to his-tagged Gal-1; conditions: for n (binding stoichiometry): lectin treated as a dimer; for agreement of titrations: his-tagged Gal-1 vs Gal-1 and previously reported value, ref [40]
Sequence of his-tagged Gal-1 (P09382 whole entry): as above

Gal-3 (Galectin-3) [2] = target: T2, Gal-3 (Galectin-3) (Homo sapiens, UniProt P17931); assay: Binding to Gal-3; conditions: Gal-3 affinity greater than Gal-1 (Table 1 and Fig. S15)
T2 sequence (P17931 whole entry): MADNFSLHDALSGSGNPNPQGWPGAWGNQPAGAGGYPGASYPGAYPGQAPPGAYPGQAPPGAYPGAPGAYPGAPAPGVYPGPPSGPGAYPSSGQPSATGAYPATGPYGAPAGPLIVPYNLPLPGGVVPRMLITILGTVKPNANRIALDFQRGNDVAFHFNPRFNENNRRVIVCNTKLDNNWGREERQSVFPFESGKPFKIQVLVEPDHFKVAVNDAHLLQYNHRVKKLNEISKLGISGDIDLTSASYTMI

[3] = test system: Gal-1 CRD in Gal-1/Gal-3 heterodimers; conditions: sequential model, at full loading, ref [48]; cited from earlier work
Gal-1, His52 mutant = conditions: mutagenesis of His52 enabled binding of TF; ref [16]; cited from earlier work
Gal-1 (Galectin-1) [4] = target: T1, Gal-1 (Galectin-1); conditions: in solution, isothermal titration calorimetry, ref [16]; cited from earlier work
Gal-3 (Galectin-3) [5] = target: T2, Gal-3 (Galectin-3); conditions: ref [34]; cited from earlier work
Gal-1 = conditions: glycan microarray format, ref [29]; cited from earlier work
[6] = target: histidine-tagged Galectin-1 (human, UniProt P09382 1-135); assay: ITC
Sequence of histidine-tagged Galectin-1 (P09382 whole entry): as the sequence (P09382 whole entry) above

Galectin-3 = Galectin-3 (UniProt P17931 1-250); assay: ITC
Sequence of Galectin-3 (P17931 whole entry): as the sequence (P17931 whole entry) above

Galectin-1 = Galectin-1 (human, UniProt P09382 1-135); assay: ITC
Sequence of Galectin-1 (P09382 whole entry): as the sequence (P09382 whole entry) above

[7] = ITC, 25 °C, one-set-of-sites model
[8] = ITC, PEAQ-ITC, 25 °C, 20 mM phosphate, 10 mM NaCl, 10 mM β-mercaptoethanol, pH 7.2, one-set-of-sites model, [ligand] mM/[cell] μM: LacNAc 6.0/140, lactose 8.0/80, ASF 218/61 (so in the source), TF and Thr-TF 6.0/50
[9] = ITC, 25 °C, pH 7.2, ASF at 0.525 mM
[10] = second ASF titration: 0.700 mM ASF, 200 μM His-tag-Gal-1, ITC, 25 °C, pH 7.2

Molecule	Gal-1 binding affinity in words (Gal-1 (Galectin-1) [1]; 25 °C)	−TΔS (Gal-1 (Galectin-1) [1]; [7])	−ΔG (Gal-1 (Galectin-1) [1]; [7])	−ΔH (Gal-1 (Galectin-1) [1]; [7])	Ka (Gal-1 (Galectin-1) [1]; [8])	Kd (Gal-1 (Galectin-1) [1]; [8])	−TΔS (his-tagged Gal-1; [9])	−ΔG (his-tagged Gal-1; [9])	−ΔH (his-tagged Gal-1; [9])	n (binding stoichiometry) (his-tagged Gal-1; [9])	agreement of titrations (his-tagged Gal-1)	Kd in HEPES buffer (values not given) (Gal-1 (Galectin-1) [1])	n-value (Gal-1 (Galectin-1) [1])	also measured
CC(=O)NC1C(OC(C)C(N)C(=O)O)OC(CO)C(O)C1OC1OC(CO)C(O)C(O)C1O (centres unmarked) [Thr-TF, Gal1–3βGalNAcα1-O-Thr]	failed to recognize TF disaccharide and Thr-TF (TF antigen) beyond the millimolar affinity	13.3 kcal/mol	3.28 kcal/mol	16.6 (± 0.269) kcal/mol	250 M⁻¹	3.96 mM								Gal-1 binding affinity in words (Gal-1 (Galectin-1) [1]; 25 °C, listed as Thr-TF antigen): binding by Gal-1 in mM range
CC(=O)N[C@H]1C(O)O[C@H](CO)[C@@H](O[C@@H]2O[C@H](CO)[C@H](O)[C@H](O)[C@H]2O)[C@@H]1O (some centres unmarked) [LacNAc, N-Acetyllactosamine]		4.40 kcal/mol	5.57 kcal/mol	9.97 (± 0.151) kcal/mol	12000 M⁻¹	0.083 mM	4.27 kcal/mol	5.53 kcal/mol	9.79 (± 0.206) kcal/mol	2.02	in agreement with values obtained for Gal-1 and previously reported value	mirrored the values obtained in phosphate buffer	2	Gal-3 affinity relative to Gal-1 (Gal-3 (Galectin-3) [2]): ~2 x
CC(=O)N[C@@H](C=O)[C@@H](O[C@@H]1O[C@H](CO)[C@H](O)[C@H](O)[C@H]1O)[C@@H](O)[C@H](O)CO [TF, 2-Acetamido-2-deoxy-3-O-β-D-galactopyranosyl-D-galactose]		13.4 kcal/mol	3.30 kcal/mol	16.7 (± 0.221) kcal/mol	260 M⁻¹									Affinity of the Gal-1 CRD for TF [3]: high mM range; Kd (Gal-1 (Galectin-1) [1]): 3.8 mM; Gal-1 binding affinity in words (Gal-1 (Galectin-1) [1]; 25 °C, listed as TF disaccharide): binding by Gal-1 in mM range; also recorded: failed to recognize TF disaccharide and Thr-TF (TF antigen) beyond the millimolar affinity; Affinity of TF for His52-mutated Gal-1 (Gal-1, His52 mutant): high μM affinity; Gal-1 recognition of TF antigen by ITC (Bian et al.) (Gal-1 (Galectin-1) [4]): failed to observe Gal-1 recognition of the TF antigen in solution beyond millimolar affinity; Thermodynamic driving force of Gal-3 binding (Gal-3 (Galectin-3) [5]): enthalpy-driven; Gal-1 binding to TF antigen, glycan microarray (Gal-1): did not bind significantly
OC[C@H]1O[C@@H](O[C@H]2[C@H](O)[C@@H](O)C(O)O[C@@H]2CO)[C@H](O)[C@@H](O)[C@H]1O (mixture of isomers) [Lactose, lactose]		7.09 kcal/mol		11.9 (± 0.906) kcal/mol			4.04 kcal/mol		8.67 (± 1.43) kcal/mol	2.05	in agreement with values obtained for Gal-1 and previously reported value		2	
ASF: Asialofetuin from fetal calf serum Type 1, a glycoprotein with three triantennary LacNAc presentations	remained in the uM range; also recorded: low micromolar affinity	58.2 kcal/mol	7.15 kcal/mol		174000 M⁻¹	0.00576 mM	50.1 kcal/mol	7.37 kcal/mol			in agreement with values obtained for Gal-1 and previously reported value	mirrored the values obtained in phosphate buffer		Ka (his-tagged Gal-1; [10]): 340100 M⁻¹; Kd (his-tagged Gal-1; [10]): 2.94 µM; −TΔS (his-tagged Gal-1; [10]): 49.6 kcal/mol; −ΔG (his-tagged Gal-1; [10]): 7.55 kcal/mol
Asialofetuin (ASF) from fetal calf serum Type 1 (natural protein, bovine (from fetal calf serum), UniProt P12763 19-359, looked up, desialylated glycoprotein with three triantennary LacNAc presentations (glycan valency of nine)) IPLDPVAGYKEPACDDPDTEQAALAAVDYINKHLPRGYKHTLNQIDSVKVWPRRPTGEVYDIEIDTLETTCHVLDPTPLANCSVRQQTQHAVEGDCDIHVLKQDGQFSVLFTKCDSSPDSAEDVRKLCPDCPLLAPLNDSRVVHAVEVALATFNAESNGSYLQLVEISRAQFVPLPVSVSVEFAVAATDCIAKEVVDPTKCNLLAEKQYGFCKGSVIQKALGGEDVRVTCTLFQTQPVIPQPQPDGAEAEAPSAVPDAAGPTPSAAGPPVASVVVGPSVVAVPLPLHRAHYDLRHTFSGVASVESSSGEAFHVGKTPIVGQPSIPGGPVRLCPGRIRYFKI														-dH [6]: 57.1 kcal/mol and 57.5 kcal/mol; stoichiometry N [6]: 0.274 and 0.283; fold affinity for ASF against Gal-1 (Galectin-3): ~12 fold; -dH (Galectin-1): 65.4 ± 1.42 kcal/mol; stoichiometry N (Galectin-1): 0.222
